The source made the active and inactive calls. The calls are words filed in the database; no cut-off is given here.
molecular target: Lysine-specific demethylase 6A (Homo sapiens, UniProt O15550); test: Inhibition of KDM6A; settings: not given
Sequence (O15550 whole entry): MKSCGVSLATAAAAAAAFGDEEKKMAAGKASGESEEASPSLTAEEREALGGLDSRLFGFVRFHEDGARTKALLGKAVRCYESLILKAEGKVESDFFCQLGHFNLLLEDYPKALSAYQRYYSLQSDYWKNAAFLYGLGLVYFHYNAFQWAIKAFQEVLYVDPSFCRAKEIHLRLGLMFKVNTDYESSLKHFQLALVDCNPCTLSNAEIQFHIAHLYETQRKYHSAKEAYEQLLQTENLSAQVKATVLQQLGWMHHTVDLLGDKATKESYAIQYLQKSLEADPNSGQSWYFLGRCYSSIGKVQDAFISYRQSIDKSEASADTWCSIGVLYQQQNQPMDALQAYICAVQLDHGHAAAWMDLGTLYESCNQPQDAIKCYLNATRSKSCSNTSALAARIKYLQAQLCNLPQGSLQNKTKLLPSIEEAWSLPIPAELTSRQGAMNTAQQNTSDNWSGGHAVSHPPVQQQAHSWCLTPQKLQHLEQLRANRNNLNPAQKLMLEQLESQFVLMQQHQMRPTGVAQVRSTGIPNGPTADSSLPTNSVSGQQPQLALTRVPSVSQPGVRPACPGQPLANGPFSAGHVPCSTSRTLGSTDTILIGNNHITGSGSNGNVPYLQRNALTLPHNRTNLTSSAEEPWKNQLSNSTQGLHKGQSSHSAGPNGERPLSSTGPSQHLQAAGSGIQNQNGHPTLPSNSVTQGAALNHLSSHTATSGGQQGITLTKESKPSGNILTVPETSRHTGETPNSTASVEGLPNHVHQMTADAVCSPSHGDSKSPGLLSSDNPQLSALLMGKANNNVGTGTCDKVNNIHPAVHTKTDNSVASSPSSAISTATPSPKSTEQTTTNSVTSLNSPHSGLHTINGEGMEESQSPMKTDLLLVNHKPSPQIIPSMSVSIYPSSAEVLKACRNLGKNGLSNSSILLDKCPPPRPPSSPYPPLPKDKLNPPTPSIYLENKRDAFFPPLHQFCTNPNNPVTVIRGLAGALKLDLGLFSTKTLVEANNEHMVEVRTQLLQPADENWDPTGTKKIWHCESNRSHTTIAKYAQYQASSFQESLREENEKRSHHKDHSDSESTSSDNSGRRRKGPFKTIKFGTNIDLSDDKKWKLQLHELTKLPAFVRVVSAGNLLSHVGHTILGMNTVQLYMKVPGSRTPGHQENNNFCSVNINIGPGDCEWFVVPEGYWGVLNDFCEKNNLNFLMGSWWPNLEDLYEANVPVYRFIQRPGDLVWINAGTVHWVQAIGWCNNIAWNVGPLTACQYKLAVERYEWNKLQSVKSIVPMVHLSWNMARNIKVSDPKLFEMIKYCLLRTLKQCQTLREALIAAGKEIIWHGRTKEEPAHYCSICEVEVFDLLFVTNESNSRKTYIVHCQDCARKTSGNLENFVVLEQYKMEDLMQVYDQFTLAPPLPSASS

Compound | IC50
O=C(O)c1ccnc(C(=O)O)c1 | 177 µM

molecular target: T1, Lysine-specific demethylase 4C (Homo sapiens, UniProt Q9H3R0); test: Inhibition of KDM4C catalytic core-mediated demethylation of ARK(Me)3STGGK after 30 mins by FDH-coupled assay; settings: not given
T1 sequence (Q9H3R0 whole entry): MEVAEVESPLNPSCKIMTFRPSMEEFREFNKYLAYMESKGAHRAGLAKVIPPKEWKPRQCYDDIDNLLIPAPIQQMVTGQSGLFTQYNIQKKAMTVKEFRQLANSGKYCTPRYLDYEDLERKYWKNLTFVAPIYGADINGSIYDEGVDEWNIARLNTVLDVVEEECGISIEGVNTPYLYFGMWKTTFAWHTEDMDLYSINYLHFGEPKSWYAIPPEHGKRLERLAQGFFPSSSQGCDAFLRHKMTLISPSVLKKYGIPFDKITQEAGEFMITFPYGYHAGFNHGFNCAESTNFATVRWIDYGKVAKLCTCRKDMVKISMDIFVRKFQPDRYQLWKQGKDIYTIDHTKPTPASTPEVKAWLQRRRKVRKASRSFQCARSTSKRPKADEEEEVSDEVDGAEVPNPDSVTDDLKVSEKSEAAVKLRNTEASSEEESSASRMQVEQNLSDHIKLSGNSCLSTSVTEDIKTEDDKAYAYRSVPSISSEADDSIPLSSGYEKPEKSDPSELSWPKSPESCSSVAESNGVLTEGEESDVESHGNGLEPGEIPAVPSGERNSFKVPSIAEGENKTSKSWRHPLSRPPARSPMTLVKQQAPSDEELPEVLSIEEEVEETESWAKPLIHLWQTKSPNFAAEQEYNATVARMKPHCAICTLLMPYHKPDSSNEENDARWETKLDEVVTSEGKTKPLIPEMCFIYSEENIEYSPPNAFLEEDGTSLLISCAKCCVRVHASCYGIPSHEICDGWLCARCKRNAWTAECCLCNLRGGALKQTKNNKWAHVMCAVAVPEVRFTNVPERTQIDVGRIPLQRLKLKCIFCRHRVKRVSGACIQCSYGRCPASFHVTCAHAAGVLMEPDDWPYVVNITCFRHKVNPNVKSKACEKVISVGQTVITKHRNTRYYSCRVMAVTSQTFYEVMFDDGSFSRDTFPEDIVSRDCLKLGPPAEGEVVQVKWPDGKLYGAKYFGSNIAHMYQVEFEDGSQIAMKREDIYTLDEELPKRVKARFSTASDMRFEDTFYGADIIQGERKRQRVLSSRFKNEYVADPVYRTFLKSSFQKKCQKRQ

Compound | IC50 | Ki
COC(=O)c1n[nH]c(C(=O)OC)c1O | 30 µM | 51 µM
Cn1cc(Cl)nc1Cl | > 200 µM | > 200 µM
O=C(O)c1cc[nH]n1 | > 200 µM | > 200 µM
Cc1ccc(-n2nc(C(=O)c3ccccc3)c(O)c2C)cc1 | > 200 µM | > 200 µM
[O-][n+]1nn(-c2ccccc2)c(Cl)c1Br | > 200 µM | > 200 µM
O=C1CN=C(c2ccccc2)c2cc([N+](=O)[O-])ccc2N1 [NITRAZEPAM] | > 200 µM | > 200 µM
COc1ccc(Cn2nnc(C(=O)O)c2N)cc1 | > 200 µM | > 200 µM
CCOC(=O)c1nnn(-c2ccccc2)c1NC(C)=O | > 200 µM | > 200 µM
c1cn[nH]c1 [PYRAZOLE] | > 200 µM | > 200 µM
Cc1nn(C)n(C)c1=S | > 200 µM | > 200 µM
CNC(=O)c1nnn(C)c1O | > 200 µM | > 200 µM
COn1nnc(C(=O)O)c1C(=O)O | > 200 µM | > 200 µM
Cc1ccc(Cn2cc(C(=O)O)nn2)cc1 | > 200 µM | > 200 µM
[O-][n+]1nn(-c2ccccc2)c(Cl)c1Cl | > 200 µM | > 200 µM
CSc1c(Cl)[n+]([O-])nn1-c1ccccc1 | > 200 µM | > 200 µM
Cc1c(Cl)[n+]([O-])nn1-c1ccccc1 | > 200 µM | > 200 µM
[O-][n+]1nn(Cc2ccccc2)cc1Cl | > 200 µM | > 200 µM
OB(O)c1cc[nH]n1 | > 200 µM | > 200 µM
Brc1cn(Cc2ccccc2)nn1 | > 200 µM | > 200 µM
[O-][n+]1nn(-c2ccccc2)c(CO)c1Cl | > 200 µM | > 200 µM
O=C(O)c1cn(-c2ccccc2)nn1 | > 200 µM | > 200 µM
OCC1C(Cl)=NNN1c1ccccc1 (stereo unspecified) | > 200 µM | > 200 µM
Cn1cc(Br)nc1-c1ccccc1 | > 200 µM | > 200 µM
[O-][n+]1nn(-c2ccccc2)c(Br)c1Cl | > 200 µM | > 200 µM
O=C(O)c1cnn(-c2ccccc2)n1 | > 200 µM | > 200 µM
CCOC(=O)c1[nH]nnc1C | > 200 µM | > 200 µM

Compound | IC50 | Ki
COC(=O)c1n[nH]n(Cc2ccccc2)c1=O | > 200 µM | > 200 µM
[O-][n+]1nn(Cc2ccccc2)c(Br)c1Br | > 200 µM | > 200 µM
CN1C=C(Br)N(O)N1 | > 200 µM | > 200 µM
Cn1cc(C(=O)O)nn1 | > 200 µM | > 200 µM
Oc1csc(O)n1 | > 200 µM | > 200 µM
Cc1c(O)c(C=O)nn1-c1ccccc1 | 100 µM | 142 µM
Clc1csc(-c2ccccc2)n1 | > 200 µM | > 200 µM
Cn1cc(N)nn1 | > 200 µM | > 200 µM
COc1c(-c2ccccc2)nnn1C | > 200 µM | > 200 µM
O=C(O)c1cnnn1-c1ccccc1 | > 200 µM | > 200 µM
Cc1c(C(=O)O)cnn1C | > 200 µM | > 200 µM
O=[N+]([O-])c1cnn(-c2ccccc2)c1 | > 200 µM | > 200 µM
N#Cc1cccnc1Nc1cccnc1Cl | > 200 µM | > 200 µM
C[n+]1nn(Cc2ccccc2)cc1Cl | > 200 µM | > 200 µM
Cn1c(Cl)cnc1CO | > 200 µM | > 200 µM
O=C(O)c1cc([N+](=O)[O-])[nH]n1 | > 200 µM | > 200 µM
O=C(O)c1cc(C(=O)O)[nH]n1 | > 200 µM | > 200 µM
[O-][n+]1nn(Cc2ccccc2)cc1Br | > 200 µM | > 200 µM
COc1sc(-c2ccccc2)nc1Cl | > 200 µM | > 200 µM
[O-][n+]1nn(-c2ccccc2)c(Br)c1Br | > 200 µM | > 200 µM
CN1CN(Cc2ccccc2)C=C1S | > 200 µM | > 200 µM
C[n+]1ccnn1-c1ccccc1 | > 200 µM | > 200 µM
[O-][n+]1nn(Cc2ccccc2)c(C(=S)Nc2ccccc2)c1Cl | > 200 µM | > 200 µM
Nc1cn(-c2ccccc2)nn1 | > 200 µM | > 200 µM
Cc1c(O)c(C(=O)c2ccccc2)nn1-c1ccccc1 | > 200 µM | > 200 µM

molecular target: Alcohol dehydrogenase class-3 (Homo sapiens) (UniProt P11766); test: Inhibition of FDH using formalin as substrate at 0.01 to 500 uM after 30 mins by fluorimetry; settings: not given
Sequence (P11766 2-374 limits assumed): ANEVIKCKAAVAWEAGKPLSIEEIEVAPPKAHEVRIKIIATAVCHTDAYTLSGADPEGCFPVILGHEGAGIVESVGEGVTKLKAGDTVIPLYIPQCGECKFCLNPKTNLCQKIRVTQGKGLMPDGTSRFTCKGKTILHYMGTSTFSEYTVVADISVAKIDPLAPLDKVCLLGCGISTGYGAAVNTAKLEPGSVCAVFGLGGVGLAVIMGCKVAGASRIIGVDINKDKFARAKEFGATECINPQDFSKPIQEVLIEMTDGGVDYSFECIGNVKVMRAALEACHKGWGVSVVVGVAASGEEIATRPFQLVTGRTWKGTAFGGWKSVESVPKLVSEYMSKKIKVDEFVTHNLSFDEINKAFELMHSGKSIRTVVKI

Compound | inhibition
COC(=O)c1n[nH]c(C(=O)OC)c1O | inactive
Cc1c(O)c(C=O)nn1-c1ccccc1 | inactive

molecular target: T2, Lysine-specific demethylase 4C (Homo sapiens) (UniProt Q9H3R0); settings: 500 uM
T2 sequence (whole entry): T1 sequence (Q9H3R0 whole entry)
Description: Inhibition of KDM4C catalytic core-mediated demethylation of ARK(Me)3STGGK at 500 uM after 30 mins by FDH-coupled assay in presence of increasing concentration of Fe(II) ions

Compound | inhibition
COC(=O)c1n[nH]c(C(=O)OC)c1O | inactive

Source: ChEMBL document CHEMBL2069183, “Inhibitor scaffold for the histone lysine demethylase KDM4C (JMJD2C)” (Bioorg Med Chem Lett, 2012)
